Assay results taken from US20120302569A1, “PHENYL-THIAZOLYL INHIBITORS OF PRO-MATRIX METALLOPROTEINASE ACTIVATION” (priority 2011, published 2012).
Structures can show the parent of a compound that is named as a salt.

Columns and labels:
[1] = molecular target: T1, full-length proMMP9(1-707) (SEQ ID NO:1) (Homo sapiens, UniProt P14780, R574P); experiment: proMMP9/MMP3 P126 Activation Assay; type: biochemical; conditions: proMMP9(1-707) from HEK293 cells activated by catalytic MMP3
T1 construct: made in house; host or cells: HEK293 (proMMP9, secreted); E. coli (MMP3)
Description: proMMP9/MMP3 P126 Activation Assay
The reaction volume was 50 μL. […] Reactivity of residual MMP3 towards P-126 substrate was minimal under these conditions.

[2] = molecular target: T2, proMMP9(20-445;ΔFnII) (SEQ ID NO:6) (Homo sapiens, UniProt P14780, DEL216-390); experiment: ThermoFluor with proMMP9(20-445;ΔFnII); conditions: read-out: proMMP9(20-445; ΔFnII) (SEQ ID NO: 6) binding
T2 construct: start methionine (N); made in house; host or cells: E. coli BL21(DE3) RIL
T2 sequence (P14780 with tags, fused parts or gaps DEL216-390): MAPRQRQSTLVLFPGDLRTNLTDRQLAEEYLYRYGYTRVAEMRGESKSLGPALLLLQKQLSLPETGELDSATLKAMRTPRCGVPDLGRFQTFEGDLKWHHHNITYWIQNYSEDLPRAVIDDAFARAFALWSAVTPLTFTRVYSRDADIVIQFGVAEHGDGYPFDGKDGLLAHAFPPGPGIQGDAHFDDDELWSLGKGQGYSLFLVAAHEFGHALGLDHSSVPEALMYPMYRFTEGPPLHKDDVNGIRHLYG
Description: (§1) The ThermoFluor® (TF) assay is a 384-well plate-based binding assay that measures thermal stability of proteins (Biomol Screen 2001, 6, 429-40; Biochemistry 2005, 44, 5258-66). The experiments were carried out using instruments available from Johnson & Johnson Pharmaceutical Research & Development, LLC. TF dye used in all experiments was […] (1,8-ANS) (Invitrogen: A-47).
(§2) Compounds were arranged in a pre-dispensed plate (Greiner Bio-one: 781280), wherein compounds were serially diluted in 100% DMSO across 11 columns within a series. Columns 12 and 24 were used as DMSO reference and contained no compound. For multiple compound concentration-response experiments, the compound aliquots (50 nL) were robotically predispensed directly into black 384-well polypropylene PCR microplates (Abgene: TF-0384/k) using a Cartesian Hummingbird liquid handler (DigiLab, Holliston, Mass.). Following compound dispense, protein and dye solutions were added to achieve the final assay volume of 3 μL. The assay solutions were overlayed with 1 μL of silicone oil (Fluka, type DC 200: 85411) to prevent evaporation.
(§3) Assay plates were robotically loaded onto a thermostatically controlled PCR-type thermal block and then heated from 40 to 90° C. at a ramp-rate of 1° C./min for all experiments. Fluorescence was measured by continuous illumination with UV light (Hamamatsu LC6) supplied via fiber optics and filtered through a band-pass filter (380-400 nm; >6 OD cutoff). Fluorescence emission of the entire 384-well plate was detected by measuring light intensity using a CCD camera (Sensys, Roper Scientific) filtered to detect 500±25 nm, resulting in simultaneous and independent readings of all 384 wells. A single image with 20-sec exposure time was collected at each temperature, and the sum of the pixel intensity in a given area of the assay plate was recorded vs temperature and fit to standard equations to yield the Tm (J Biomol Screen 2001, 6, 429-40).
(§4) Thermodynamic parameters necessary for fitting compound binding for each proMMP were estimated by differential scanning calorimetry (DSC) and from ThermoFluor® data. The heat capacity of unfolding for each protein was estimated from the molecular weight and from ThermoFluor® dosing data.
ThermoFluor® with proMMP9(20-445;ΔFnII) (SEQ ID NO:6)
The protein sample preparations included a desalting buffer exchange step via a PD-10 gravity column (GE Healthcare). The desalting buffer exchange was performed prior to diluting the protein to the final assay concentration of 2.8 μM proMMP9(20-445;ΔFnII) (SEQ ID NO:6). The concentration of proMMP9(20-445;ΔFnII) (SEQ ID NO:6) was determined spectrophotometrically based on a calculated extinction coefficient of ε280=39880 M^−1cm^−1, a calculated molecular weight of 28.2 kDa, and calculated pI of 5.5. ThermoFluor® reference conditions were define as follows: 80 μg/mL (2.8 μM) proMMP9(20-445;ΔFnII) (SEQ ID NO:6), 50 μM 1,8-ANS, pH 7.0 Buffer (50 mM HEPES pH 7.0, 100 mM NaCl, 0.001% Tween-20, 2.5 mM MgCl2, 300 μM CaCl2). The thermodynamic parameters for proMMP9(20-445;ΔFnII) (SEQ ID NO:6) are as follows: Tm (° C.)=72 (+/−0.1), ΔUH(Tm) (cal mol^−1)=160000(+/−5000), ΔUS(Tm) (cal mol^−1 K^−1)=434, ΔUCp (cal mol^−1 K^−1)=2400.

[3] = molecular target: T3, proMMP9(67-444;ΔFnII) (SEQ ID NO:5) (Homo sapiens, UniProt P14780, DEL216-390); experiment: ThermoFluor with proMMP9(67-444;ΔFnII); conditions: read-out: proMMP9(67-444; ΔFnII) (SEQ ID NO: 5) binding
T3 construct: start methionine (N); made in house; host or cells: E. coli BL21(DE3) RIL
T3 sequence (P14780 with tags, fused parts or gaps DEL216-390): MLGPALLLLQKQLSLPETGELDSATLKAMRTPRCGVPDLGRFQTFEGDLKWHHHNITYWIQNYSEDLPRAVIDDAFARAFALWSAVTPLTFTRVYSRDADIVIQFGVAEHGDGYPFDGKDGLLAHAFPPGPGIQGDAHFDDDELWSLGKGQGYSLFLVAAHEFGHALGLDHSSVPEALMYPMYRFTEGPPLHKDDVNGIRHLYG
Description: as §1, §2, §3, §4
ThermoFluor® with proMMP9(67-444;ΔFnII) (SEQ ID NO:5)
The protein sample preparations had to include a desalting buffer exchange step via a PD-10 gravity column (GE Healthcare). The desalting buffer exchange was performed prior to diluting the protein to the final assay concentration of 3.5 μM proMMP9(67-444;ΔFnII) (SEQ ID NO:5). The concentration of proMMP9(67-444;ΔFnII) (SEQ ID NO:5) was determined spectrophotometrically based on a calculated extinction coefficient of ε280=33900 M^−1cm^−1, a calculated molecular weight of 22.6 kDa, and calculated pI of 5.20. ThermoFluor® reference conditions were defined as follows: 80 μg/mL (3.5 μM) proMMP9(67-444;ΔFnII) (SEQ ID NO:5), 50 μM 1,8-ANS, pH 7.0 Buffer (50 mM HEPES pH 7.0, 100 mM NaCl, 0.001% Tween-20, 2.5 mM MgCl2, 300 μM CaCl2). The thermodynamic parameters for proMMP9(67-444;ΔFnII) (SEQ ID NO:5) are as follows: Tm (° C.)=63 (+/−0.1), ΔUH(Tm) (cal mol^−1)=105000(+/−5000), ΔUS(Tm) (cal mol^−1 K^−1)=450, […].

T1 sequence (P14780 20-707 R574P): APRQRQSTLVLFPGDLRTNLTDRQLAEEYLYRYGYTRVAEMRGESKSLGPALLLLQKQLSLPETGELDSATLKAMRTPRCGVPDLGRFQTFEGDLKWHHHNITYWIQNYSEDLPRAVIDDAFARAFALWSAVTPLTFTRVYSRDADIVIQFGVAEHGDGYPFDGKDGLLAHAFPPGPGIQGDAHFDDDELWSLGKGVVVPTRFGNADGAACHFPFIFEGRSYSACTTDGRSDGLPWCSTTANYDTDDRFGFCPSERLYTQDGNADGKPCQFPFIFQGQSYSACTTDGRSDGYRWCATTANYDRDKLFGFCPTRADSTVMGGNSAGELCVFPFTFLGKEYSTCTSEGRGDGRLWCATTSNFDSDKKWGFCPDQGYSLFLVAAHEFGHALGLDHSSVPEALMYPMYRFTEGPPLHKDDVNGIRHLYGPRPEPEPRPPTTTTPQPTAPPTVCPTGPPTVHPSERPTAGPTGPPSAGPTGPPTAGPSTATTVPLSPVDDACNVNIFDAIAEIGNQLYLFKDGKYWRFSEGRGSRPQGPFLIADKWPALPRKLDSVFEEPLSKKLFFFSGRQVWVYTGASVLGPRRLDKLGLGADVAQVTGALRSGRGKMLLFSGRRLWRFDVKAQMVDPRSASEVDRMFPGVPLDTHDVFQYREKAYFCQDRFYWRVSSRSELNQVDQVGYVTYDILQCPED

Q: How did the IC50 [1] turn out when `CCN1CC=C(c2ccc(-c3csc(Nc4cc(S(N)(=O)=O)ccc4OC(C)C)n3)cc2)CC1` [Example 14, 3-((4-(4-(1-Ethyl-1,2,3,6-tetrahydropyridin-4-yl)phenyl)thiazol-2-yl)amino)-4-isopropoxybenzenesulfonamide.TFA] was run?
A: 34 nM

Q: `CC(C)Oc1ccc(S(N)(=O)=O)cc1Nc1nc(-c2ccc(OCCN3CCC(F)(F)CC3)cc2)cs1` [Example 31, 3-((4-(4-(2-(4,4-Difluoropiperidin-1-yl)ethoxy)phenyl)thiazol-2-yl)amino)-4-isopropoxybenzenesulfonamide.TFA] was tested. Which IC50 [1] did it give?
A: 1100 nM

Q: And the Kd [2]?
A: 75 nM

Q: And the Kd [3]?
A: 150 nM

Q: How did the IC50 [1] turn out when `CCOc1ccncc1Nc1nc(-c2ccc(C3=CCN(C)CC3)cc2)cs1` [Example 21, N-(4-Ethoxypyridin-3-yl)-4-(4-(1-methyl-1,2,3,6-tetrahydropyridin-4-yl)phenyl)thiazol-2-amine] was run?
A: 57 nM

Q: And the Kd [2]?
A: 400 nM

Q: And the Kd [3]?
A: > 76000 nM

Q: Which results are given for `CC(C)Oc1ccc(S(N)(=O)=O)cc1Nc1nc(-c2ccc(C3CCN(C)CC3)cc2)cs1` [Example 25, 4-Isopropoxy-3-((4-(4-(1-methylpiperidin-4-yl)phenyl)thiazol-2-yl)amino)benzenesulfonamide.TFA]?
A: IC50 [1]: 69 nM; Kd [2]: 27 nM; Kd [3]: 30 nM

Q: How did the IC50 [1] turn out when `CC(C)Oc1ccc(S(N)(=O)=O)cc1Nc1nc(-c2ccc(OCCN3CCC(F)CC3)cc2)cs1` [Example 34, 3-((4-(4-(2-(4-fluoropiperidin-1-yl)ethoxy)phenyl)thiazol-2-yl)amino)-4-isopropoxybenzenesulfonamide.TFA] was run?
A: 120 nM

Q: And the Kd [2]?
A: 21 nM

Q: And the Kd [3]?
A: 28 nM

Q: `COc1ccc(F)cc1Nc1nc(-c2ccc(CN3CCOCC3)cc2)cs1` [Example 64, N-(5-fluoro-2-methoxyphenyl)-4-(4-(morpholinomethyl)phenyl)thiazol-2-amine.TFA] was tested. Which IC50 [1] did it give?
A: 2000 nM

Q: And the Kd [2]?
A: 48000 nM

Q: And the Kd [3]?
A: 6200 nM

Q: `NS(=O)(=O)c1cc2c(c(Nc3nc(-c4ccc(OCCN5CCC(F)CC5)cc4)cs3)c1)OCC2` [Example 38, 7-((4-(4-(2-(4-fluoropiperidin-1-yl)ethoxy)phenyl)thiazol-2-yl)amino)-2,3-dihydrobenzofuran-5-sulfonamide.TFA] was tested. Which IC50 [1] did it give?
A: > 20000 nM

Q: And the Kd [2]?
A: 2600 nM

Q: What about the Kd [3] of the same compound?
A: 3000 nM

Q: With `CC(C)Oc1ccc(C(N)=O)cc1Nc1nc(-c2ccc(N3CCN(C)CC3)cc2)cs1` [Example 8, 4-Isopropoxy-3-((4-(4-(4-methylpiperazin-1-yl)phenyl)thiazol-2-yl)amino)benzamide.TFA] as the compound, how does the IC50 [1] read?
A: 110 nM

Q: What about the Kd [2] of the same compound?
A: 29 nM

Q: What about the Kd [3] of the same compound?
A: 67 nM

Q: `CC(C)Oc1ccc(C(N)=O)cc1Nc1nc(-c2ccc(N3CCN(Cc4ccccc4)CC3)cc2)cs1` [Example 11, 3-((4-(4-(4-Benzylpiperazin-1-yl)phenyl)thiazol-2-yl)amino)-4-isopropoxybenzamide.TFA] was tested. Which IC50 [1] did it give?
A: 740 nM

Q: What about the Kd [2] of the same compound?
A: 380 nM

Q: And the Kd [3]?
A: 870 nM

Q: Which IC50 [1] does the source give for `COc1ccncc1Nc1nc(-c2ccc(OCCN3CCC(F)CC3)cc2)cs1` [Example 35, 4-(4-(2-(4-fluoropiperidin-1-yl)ethoxy)phenyl)-N-(4-methoxypyridin-3-yl)thiazol-2-amine.TFA] here?
A: 780 nM

Q: And the Kd [2]?
A: 4300 nM

Q: What about the Kd [3] of the same compound?
A: 1000 nM

Q: `CC(C)Oc1ccc(C(N)=O)cc1Nc1nc(-c2ccc(OCCN3CCOCC3)cc2)cs1` [Example 29, 4-Isopropoxy-3-((4-(4-(2-morpholinoethoxy)phenyl)thiazol-2-yl)amino)benzamide.TFA] was tested. Which IC50 [1] did it give?
A: 150 nM

Q: What about the Kd [2] of the same compound?
A: 28 nM

Q: What about the Kd [3] of the same compound?
A: 100 nM

Q: `COc1ccc(F)cc1Nc1nc(-c2ccc(OCCCN3CCOCC3)cc2)cs1` [Example 71, N-(5-fluoro-2-methoxyphenyl)-4-(4-(3-morpholinopropoxy)phenyl)thiazol-2-amine.TFA] was tested. Which IC50 [1] did it give?
A: 200 nM

Q: What about the Kd [2] of the same compound?
A: 44000 nM

Q: What about the Kd [3] of the same compound?
A: 1800 nM

Q: How did the IC50 [1] turn out when `CCN1CCC(c2ccc(-c3csc(Nc4cc(S(N)(=O)=O)ccc4OC(C)C)n3)cc2)CC1` [Example 26, 3-((4-(4-(1-Ethylpiperidin-4-yl)phenyl)thiazol-2-yl)amino)-4-isopropoxybenzenesulfonamide.TFA] was run?
A: 44 nM

Q: And the Kd [2]?
A: 25 nM

Q: What about the Kd [3] of the same compound?
A: 46 nM

Q: For `CC(C)Oc1ccc(S(N)(=O)=O)cc1Nc1nc(-c2ccc(CN3CCN(C4CC4)CC3)cc2)cs1` [Example 51, 3-((4-(4-((4-cyclopropylpiperazin-1-yl)methyl)phenyl)thiazol-2-yl)amino)-4-isopropoxybenzenesulfonamide.TFA], which IC50 [1] is on record?
A: 110 nM

Q: What about the Kd [2] of the same compound?
A: 36 nM

Q: And the Kd [3]?
A: 79 nM

Q: `COc1cc(C)c(C(N)=O)cc1Nc1nc(-c2ccc(OCCN3CCC(F)CC3)cc2)cs1` [Example 39, 5-((4-(4-(2-(4-fluoropiperidin-1-yl)ethoxy)phenyl)thiazol-2-yl)amino)-4-methoxy-2-methylbenzamide.TFA] was tested. Which IC50 [1] did it give?
A: 720 nM

Q: What about the Kd [2] of the same compound?
A: 550 nM

Q: And the Kd [3]?
A: 640 nM

Q: How did the IC50 [1] turn out when `CC(C)Oc1ccc(S(N)(=O)=O)cc1Nc1nc(-c2ccc(C3CCNCC3)cc2)cs1` [Example 24, 4-Isopropoxy-3-((4-(4-(piperidin-4-yl)phenyl)thiazol-2-yl)amino)benzenesulfonamide.TFA] was run?
A: 130 nM

Q: How did the IC50 [1] turn out when `CC(C)Oc1ccc(S(N)(=O)=O)cc1Nc1nc(-c2ccc(N3CCN(C(C)C)CC3)cc2)cs1` [Example 5, 4-Isopropoxy-3-((4-(4-(4-isopropylpiperazin-1-yl)phenyl)thiazol-2-yl)amino)benzenesulfonamide.TFA] was run?
A: 130 nM

Q: With `CC(C)Oc1ccc(S(N)(=O)=O)cc1Nc1nc(-c2ccc(C3CCN(C(C)C)CC3)cc2)cs1` [Example 27, 4-Isopropoxy-3-((4-(4-(1-isopropylpiperidin-4-yl)phenyl)thiazol-2-yl)amino)benzenesulfonamide.TFA] as the compound, how does the IC50 [1] read?
A: 64 nM
